According to US7241793B2, “Phenyloxyalkanonic acid derivatives as hPPAR activators” (SmithKline Beecham Corporation, priority 2002, dated 2007):

## Cc1cc(CN(Cc2ccsc2)c2sc(-c3ccc(C(F)(F)F)cc3)nc2C)cc(C)c1OC(C)(C)C(=O)O [Example 2, 2-[2,6-Dimethyl-4-({[4-methyl-2-(4-trifluoromethyl-phenyl)-thiazol-5-yl]-thiophen-3-ylmethyl-amino}-methyl)-phenoxy]-2-methyl-propionic acid]
  melting point: 90 to 100 °C

## Cc1cc(CN(Cc2ccc(F)cc2)c2cc(-c3ccc(C(F)(F)F)cc3)nn2C)cc(C)c1OC(C)(C)C(=O)O [Example 14, 2-[4-({(4-Fluoro-benzyl)-[2-methyl-5-(4-trifluoromethyl-phenyl)-2H-pyrazol-3-yl]-amino}-methyl)-2,6-dimethyl-phenoxy]-2-methyl-propionic acid]
  melting point: > 90 °C

## Cc1cc(CN(C)c2cc(-c3ccc(Cl)cc3)nn2C)cc(C)c1OC(C)(C)C(=O)O [Example 6, 2-[4-({[5-(4-Chloro-phenyl)-2-methyl-2H-pyrazol-3-yl]-methyl-amino}-methyl)-2,6-dimethyl-phenoxy]-2-methyl-propionic acid]
  melting point: 158 °C

## Cc1cc(CN(Cc2cccs2)c2sc(-c3ccc(C(F)(F)F)cc3)nc2C)ccc1OC(C)(C)C(=O)O [Example 91, 2-Methyl-2-(2-methyl-4-{([4-methyl-2-(4-trifluoromethylphenyl)thiazol-5-yl-]thiophen-2-ylmethylamino)methyl}phenoxy)propionic acid]
  melting point: 100 °C

## Cc1cc(CN(Cc2ccco2)c2sc(-c3ccc(C(F)(F)F)cc3)nc2C)ccc1OC(C)(C)C(=O)O [Example 93, 2-Methyl-2-(2-methyl-4-{([4-methyl-2-(4-trifluoromethylphenyl)thiazol-5-yl]furan-2-ylmethylamino)methyl}phenoxy)propionic acid]
  melting point: 80 °C
